{
  "source": "paper PMC11413854",
  "about": "“Reversible Control of Native GluN2B-Containing NMDA Receptors with Visible Light” (ACS Chemical Neuroscience, 2024)",
  "test": "Photostationary state (cis/trans) composition in solution by HPLC, UV-vis or 1H NMR",
  "type": "physicochemical",
  "details": "for % of trans in solution: Fig. 5J; for % of cis in solution: Figure 5E",
  "excerpt": "To characterize the photochemical properties of OptoNAM-3, we focused on the three key properties allowing the use of azobenzenes in biological systems: (i) wavelengths for trans-to-cis and cis-to-trans conversions; (ii) compound thermalstability, i.e., half-life of the cis isomer in the dark; and (iii) fatigability, i.e., the number of illumination cycles that the molecule can undergo without degradation. To this aim, we acquired UV–visible absorption spectra of OptoNAM-3 diluted in Xenopus oocyte recording solution (Ringer pH 7.3; see Methods) either in the dark (absence of illumination) or after illumination by light wavelengths ranging from 350 to 580 nm (Figures 2B and S1M). In the dark (black curve in Figure 2B), the spectrum was characteristic of a trans isomer.[32] Application of UV light at a wavelength close to the main absorption peak of the trans form (365 or 350 nm) gave a completely different spectrum (violet curves in Figure 2B), characteristic of azobenzenes in their cis configuration.[32] HPLC analysis of OptoNAM-3 in solution identified photostationary states (PSS) containing 100% trans in the dark, 82% cis and 18% residual trans after illumination at 365 nm (365 nm PSS, violet curve in Figure 2C), and 91% cis and 9% residual trans after illumination at 350 nm (350 nm PSS, lavender curve in Figure 2C). […] Irradiation of OptoNAM-3 365 nm PSS with wavelengths from 435 to 550 nm gave equivalent cis-to-trans conversions with 435 and 550 nm yielding slightly stronger conversions (∼70% trans after illumination at 435 and 550 nm calculated from UV–visible spectra at λtrans = 329 nm, Figures 2B and S1N; 550 nm PSS of 69% trans and 31% cis measured by HPLC, Figure 2C, green trace). 550 nm was chosen as the optimal wavelength since green light is less harmful for cells than lights of shorter wavelengths. We then tested the thermal stability of the cis form in the dark (in the absence of illumination). […] This very high stability is interesting because it avoids the prolonged use of light to maintain OptoNAM-3 in the desired configuration. OptoNAM-3 could finally endure many illumination cycles without degradation (Figure 2E).\nUV–vis absorbance spectra were measured from in 1 cm long quartz cuvettes on a NanoPhotometer NP80 spectrometer (Implen, Germany). We used solutions of 10, 50, or 100 μM OptoNAMs diluted in Ringer at pH 7.3 (for TEVC extracellular recording solution, see below) from the 50 mM stock solution in DMSO. Photostationary states of OptoNAMs in Ringer for different illumination wavelengths were obtained by continuous illumination with multiwavelength LEDs (pE-2 and pE-4000, CoolLED, UK [power ∼75 mW]) or photochemical reactor RPR-100 Rayonet US (power ∼2 mW) for 350 nm, until no further change in the absorption spectra could be observed. For all irradiation wavelengths tested, 10 min illumination was sufficient to reach the steady state.\nThe cis–trans compositions of OptoNAM-3 in the dark and after illumination by 365, 350, and 550 nm were determined by HPLC using the relative integrated areas of the cis and trans peaks at the isosbestic point at 280 nm, […], considering that the sum of integrated area for two peaks is 100%. We checked that ratios measured at the isosbestic point at 390 nm were similar. Analytical HPLC was performed on an Agilent 1200 series equipped with a quaternary pump using a Nucleodur C18 HTech column from Macherey-Nagel Inc. (particle size 3 μm, 150 × 4.6 mm column). The compounds were eluted with a flow of 1 mL/min using a gradient of acetonitrile (0–100% over 15 min) in water, with both solvents containing 0.1% TFA. Detection was performed at 220, 280, and 390 nm.\nThe dark and 365 nm PSS were furthermore characterized by ^1H NMR spectroscopy with the OptoNAMs diluted in DMSO-d6 and the relative abundance of trans and cis isomers quantified using ^1H NMR spectra. […]",
  "key": {"[1]": {"details": "physiological buffer, UV-visible, measured at λtrans"}, "[2]": {"details": "HPLC, physiological aqueous buffer"}, "[3]": {"details": "in solution, UV-visible spectra"}, "[4]": {"details": "in solution, calculated from UV-visible spectra at 329 nm"}},
  "note": "Values joined by “and” are separate entries in the source; they are usually repeats but may differ in a detail not shown here. Equal values may be shown once.",
  "data": [
    {"smiles": "Nc1ccnc(/N=N/c2ccccc2)c1", "note": "[OptoNAM-1, (E)-2-(phenyldiazenyl)pyridin-4-amine]", "values": [
      {"measurement": "trans after 440 nm irradiation of the 365 nm PSS", "setting": "[1]", "result": "~ 75%"}
    ]},
    {"smiles": "Cc1cc(N)nc(/N=N/c2ccccc2)c1", "note": "[OptoNAM-2, (E)-4-methyl-6-(phenyldiazenyl)pyridin-2-amine]", "values": [
      {"measurement": "trans after 490 nm irradiation of the 365 nm PSS", "setting": "[1]", "result": "~ 52%"}
    ]},
    {"smiles": "c1ccc(/N=N/c2ccc(CCNc3ccncc3)cc2)cc1", "note": "[OptoNAM-3, (E)-N-(4-(Phenyldiazenyl)phenethyl)pyridin-4-amine]", "values": [
      {"measurement": "365 nm PSS, cis, in DMSO", "setting": "DMSO, 1H NMR", "result": 90, "unit": "%"},
      {"measurement": "% of trans in solution", "setting": "365 nm", "result": 18.030, "unit": "%"},
      {"measurement": "% of trans in solution", "setting": "385 nm", "result": 53.274, "unit": "%"},
      {"measurement": "% of trans in solution", "setting": "435 nm", "result": 71.738, "unit": "%"},
      {"measurement": "% of trans in solution", "setting": "460 nm", "result": 68.781, "unit": "%"},
      {"measurement": "% of trans in solution", "setting": "490 nm", "result": 68.847, "unit": "%"},
      {"measurement": "% of trans in solution", "setting": "525 nm", "result": 62.601, "unit": "%"},
      {"measurement": "% of trans in solution", "setting": "550 nm", "result": 70.739, "unit": "%"},
      {"measurement": "% of trans in solution", "setting": "580 nm", "result": 68.208, "unit": "%"},
      {"measurement": "% of cis in solution", "setting": "365 nm", "result": 82.000, "unit": "%"},
      {"measurement": "% of cis in solution", "setting": "385 nm", "result": 48.439, "unit": "%"},
      {"measurement": "% of cis in solution", "setting": "435 nm", "result": 30.261, "unit": "%"},
      {"measurement": "% of cis in solution", "setting": "460 nm", "result": 30.902, "unit": "%"},
      {"measurement": "% of cis in solution", "setting": "490 nm", "result": 32.185, "unit": "%"},
      {"measurement": "% of cis in solution", "setting": "525 nm", "result": 29.192, "unit": "%"},
      {"measurement": "% of cis in solution", "setting": "550 nm", "result": 27.267, "unit": "%"},
      {"measurement": "% of cis in solution", "setting": "580 nm", "result": 25.128, "unit": "%"},
      {"measurement": "550 nm PSS, cis", "setting": "HPLC", "result": 31, "unit": "%"},
      {"measurement": "550 nm PSS, trans", "setting": "HPLC", "result": 69, "unit": "%"},
      {"measurement": "PSS in the dark, trans", "setting": "HPLC, aqueous solution", "result": 100, "unit": "%"},
      {"measurement": "350 nm PSS, cis", "setting": "[2]", "result": 91, "unit": "%"},
      {"measurement": "350 nm PSS, residual trans", "setting": "[2]", "result": 9, "unit": "%"},
      {"measurement": "365 nm PSS, residual trans", "setting": "[2]", "result": 18, "unit": "%"},
      {"measurement": "365 nm PSS, cis", "setting": "HPLC, physiological aqueous buffer (free OptoNAM-3)", "result": 82, "unit": "%"},
      {"measurement": "cis after 460 nm illumination of the dark PSS", "setting": "[3]", "result": "~31", "unit": "%"},
      {"measurement": "cis after 550 and 580 nm illumination of the dark PSS", "setting": "[3]", "result": "~30", "unit": "%"},
      {"measurement": "trans after 460 nm illumination of the 365 nm PSS", "setting": "[3]", "result": 69, "unit": "%"},
      {"measurement": "trans after 435 nm illumination of the 365 nm PSS", "setting": "[4]", "result": "~70% and 72%"},
      {"measurement": "trans after 550 nm illumination of the 365 nm PSS", "setting": "[4]", "result": "~70", "unit": "%"}
    ]},
    {"smiles": "CS(=O)(=O)Nc1ccc2nc(Cc3ccc(/N=N/c4ccccc4)cc3)[nH]c2c1", "note": "[OptoNAM-4, (E)-N-(2-(4-(phenyldiazenyl)benzyl)-1H-benzo[d]imidazol-6-yl)methanesulfonamide]", "values": [
      {"measurement": "trans after 440 nm irradiation of the 365 nm PSS", "setting": "[1]", "result": 100, "unit": "%"}
    ]}
  ]
}
